{"source": "patent US20130312498A1", "about": "“CARDIOVASCULAR DISEASE RISK ASSESSMENT AND TREATMENT BY STEROL AND/OR STANOL MARKERS” (FOUNDATION FOR HEALTH IMPROVEMENT AND TECHNOLOGY, priority 2012, published 2013)", "origin": "cited, not measured here", "key": {"[1]": {"system": "fatty acid absorption", "details": "in vivo"}, "[2]": {"target": "T1, NPC1L1/AP2-clathrin complex (Homo sapiens, UniProt Q9UHC9)", "T1 construct": "from tissue; host or cells: intestinal epithelium (in vivo, patients)", "T1 sequence (Q9UHC9 22-1359)": "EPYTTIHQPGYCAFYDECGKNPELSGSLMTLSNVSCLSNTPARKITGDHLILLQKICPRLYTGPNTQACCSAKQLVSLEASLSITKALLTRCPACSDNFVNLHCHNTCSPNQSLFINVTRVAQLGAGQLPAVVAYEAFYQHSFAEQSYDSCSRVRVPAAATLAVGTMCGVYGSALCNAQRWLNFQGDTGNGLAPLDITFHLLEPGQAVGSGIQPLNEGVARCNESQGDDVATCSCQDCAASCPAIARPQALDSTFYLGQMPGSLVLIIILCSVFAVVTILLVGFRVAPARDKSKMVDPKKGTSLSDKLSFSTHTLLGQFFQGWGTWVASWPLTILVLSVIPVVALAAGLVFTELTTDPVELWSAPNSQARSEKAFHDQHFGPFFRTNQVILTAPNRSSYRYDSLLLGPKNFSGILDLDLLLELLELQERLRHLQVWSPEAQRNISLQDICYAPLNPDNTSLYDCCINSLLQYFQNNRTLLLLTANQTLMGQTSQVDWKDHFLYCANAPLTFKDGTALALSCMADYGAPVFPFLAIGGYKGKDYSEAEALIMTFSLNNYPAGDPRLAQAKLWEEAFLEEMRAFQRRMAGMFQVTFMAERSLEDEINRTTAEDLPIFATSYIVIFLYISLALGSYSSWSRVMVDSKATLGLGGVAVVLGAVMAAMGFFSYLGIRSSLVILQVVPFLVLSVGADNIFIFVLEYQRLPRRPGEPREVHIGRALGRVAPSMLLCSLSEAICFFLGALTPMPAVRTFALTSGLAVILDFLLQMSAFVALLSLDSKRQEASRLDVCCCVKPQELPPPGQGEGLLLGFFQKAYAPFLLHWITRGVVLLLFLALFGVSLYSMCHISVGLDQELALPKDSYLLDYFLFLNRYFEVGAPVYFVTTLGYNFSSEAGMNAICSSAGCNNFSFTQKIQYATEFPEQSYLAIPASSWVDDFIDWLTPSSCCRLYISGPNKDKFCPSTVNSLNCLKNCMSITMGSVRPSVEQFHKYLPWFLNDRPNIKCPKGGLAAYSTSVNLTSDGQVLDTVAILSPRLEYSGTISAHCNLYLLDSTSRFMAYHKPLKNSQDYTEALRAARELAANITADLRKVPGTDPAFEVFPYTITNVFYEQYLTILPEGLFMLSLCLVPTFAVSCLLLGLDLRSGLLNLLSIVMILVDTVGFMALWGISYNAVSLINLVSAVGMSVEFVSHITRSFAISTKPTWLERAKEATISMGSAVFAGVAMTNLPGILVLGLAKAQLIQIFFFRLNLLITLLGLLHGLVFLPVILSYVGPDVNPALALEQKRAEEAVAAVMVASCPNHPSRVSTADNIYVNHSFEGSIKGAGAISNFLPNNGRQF", "details": "typical effect, intestinal sterol absorption"}}, "data": [{"molecule": "O=C1[C@H](CC[C@H](O)c2ccc(F)cc2)[C@@H](c2ccc(O)cc2)N1c1ccc(F)cc1", "note": "[Ezetimibe]", "values": [{"measurement": "effect on fatty acid absorption", "setting": "[1]", "value": "no effect"}, {"measurement": "reduction of sterol absorption", "setting": "[2]", "value": "about 50%"}]}]}
